# Measured values reported in US8334316B2, “Substituted organosulfur compounds and methods of using thereof” (ACEA Biosciences, Inc., priority 2004, dated 2012).
# Several values for one entry are separate records, joined by “and”; a condition that tells them apart may be missing. Equal values may be shown once. Marks after values point to notes of the source that are not given here.
# What was measured:
# [1] = system: A549 human lung cancer cells; test: Apoptosis: Annexin V-Cy3 / 6-CFDA staining of A549 cells; format: cell-based; conditions: 24 hrs
# Description: The cells were incubated with the drugs for 24 hours and then washed 2× with PBS and 3× with binding buffer (10 mM HEPES, pH 7.5, 140 mM NaCl, 2.5 mM CaCl2). […] The cells were gently washed 3× in 1× binding buffer, mounted, viewed under immunofluorescent microscope and imaged using an attached CCD camera. Note that live cells show staining only with 6-CFDA (green), while necrotic cells will stain only with Annexin V-Cy3 (red). Cells starting the apoptotic process will stain both with AnnexinV-Cy3 and 6-CFDA.
# [2] = system: Bcap-37 human breast cancer; test: Bcap-37 human breast cancer xenograft in nude mice, dosing from 24 h after transplantation (Example 3); format: in vivo; conditions: for tumor inhibition rate %: vs solvent control
# Description: Both male and female mice were used. […] Test control. […] Preparation and Administration of Test Compounds. […] For human tumor xenograft model, all used materials, including animal food, animal cage, supporting materials and apparatus contacted by animals, were high-pressure sterilized. Nude mice were maintained in laminar flow shelves under SPF condition. After tumor transplantation, mouse weight and tumor size in each compound dosage group were dynamically monitored and plotted.
# [3] = system: microtubules in COS cells; test: Microtubule network in cultured COS cells (anti-tubulin immunofluorescence, confocal microscopy); format: cell-based
# Description: Cell Culture and Immunocytochemistry. COS cells were grown in DMEM media supplemented with non-essential amino acids, 10% FBS, antibiotic-antimycotic (Gibco BRL) at 37° C. and 5.5% CO2. […] Cells were then rinsed once with warm PBS, fixed with cold methanol, rinsed again in PBS and blocked overnight at 4° C. in PBT (PBS, 1% BSA, 0.5% Triton X-100). All subsequent stains and washes were done in PBT at room temperature unless stated otherwise. Cells were stained with the anti-tubulin mouse antibody DM-1 at 1:1000 for 1 hour, washed four times for 15 minutes each and then treated with Cy-3 conjugated goat anti mouse antibody at 1:100 for 1 hour in the dark. Next, samples were washed four times for 15 minutes each in PBT in the dark followed by a final 15 minute wash in PBS in the dark. Samples were then viewed by laser scanning confocal microscopy.
# [4] = system: ao10/17 human ovarian cancer; test: ao10/17 human ovarian cancer xenograft in nude mice (Example 4); format: in vivo; conditions: for tumor inhibition rate %: vs solvent control
# Description: Only female mice were used in this study. […] The high, middle and low doses of ACEA100108 were 50, […] and 8 mg/kg/d, respectively.
# Preparation and Administration of Test Compounds. […] The high, middle and low dose of compound ACEA100108 was 50, 20 and 8 mg/kg, respectively.
# The tumor tissues were grounded in normal saline (1:6 for tumor volume to saline volume) and tumor cell suspensions were prepared in the normal saline.
# For the human ovarian cancer xenograft model, all used materials, including animal food, animal cage, supporting materials and apparatus contacted by animals, were high-pressure sterilized. Nude mice were maintained in laminar flow shelves under SPF condition. After tumor transplantation, mouse weight and tumor size in each compound dosage group were dynamically monitored and plotted. The tumor size was determined by measuring the major axis (a) and minor axis (b) of the tumor, and tumor volume was calculated according to the equation (3) in Example 3.
# [5] = 8 mg/kg iv x7 qd, 7 days after transplantation
# [6] = 20 mg/kg iv x7 qd, 7 days after transplantation
# [7] = 50 mg/kg iv x7 qd, 7 days after transplantation
# [8] = 8 mg/kg iv x7 qd, 7 D after transplantation
# [9] = 20 mg/kg iv x7 qd, 7 D after transplantation
# [10] = 50 mg/kg iv x7 qd, 7 D after transplantation
# [11] = 10 mg/kg iv x7 qd, 7 days after transplantation
smiles,measurement,setting,value
"Fc1ccc(CSSSCc2ccc(F)cc2)cc1 [ACEA100108, Di(p-fluorobenzyl)trisulfide]",Annexin V staining (apoptosis),[1]; 1 uM,strong staining of Annexin V
same,Mice with palpable tumor / total mice,[2]; [5],4/6††
same,Tumor volume (cm^3),[2]; [5],0.01 cm^3
same,Tumor volume (cm^3),"[2]; 8 mg/kg iv x7 qd, 14 d",0.068 ± 0.02 cm^3
same,Tumor volume (cm^3),"[2]; 8 mg/kg iv x7 qd, 21 d",0.214 ± 0.04 cm^3
same,Tumor volume (cm^3),"[2]; 8 mg/kg iv x7 qd, 24 d (end)",0.985 cm^3 and 0.985 ± 0.4 cm^3
same,TV inhibition rate % T/C,[2]; 8 mg/kg/d iv x7 qd,56.15%
same,Tumor weight,[2]; 8 mg/kg/d iv x7 qd,1.18 ± 0.23 g
same,Body weight of mice,"[2]; 8 mg/kg/d iv x7 qd, 0 day (beginning)",18.0 g and 18 ± 0.6 g
same,Body weight of mice,"[2]; 8 mg/kg/d iv x7 qd, 7 day",19.5 ± 1 g
same,Body weight of mice,"[2]; 8 mg/kg/d iv x7 qd, 14 d",21.5 ± 1 g
same,Body weight of mice,"[2]; 8 mg/kg/d iv x7 qd, 21 d",22.3 ± 1.6 g
same,Body weight of mice,"[2]; 8 mg/kg/d iv x7 qd, 24 d (end)",23.0 g and 23 ± 1.5 g
same,tumor inhibition rate %,[2]; 8 mg/kg/d iv x7 qd,31.40%
same,Mice with palpable tumor / total mice,[2]; [6],5/6††
same,Tumor volume (cm^3),[2]; [6],0.01 cm^3
same,Tumor volume (cm^3),"[2]; 20 mg/kg iv x7 qd, 14 d",0.049 ± 0.03 cm^3
same,Tumor volume (cm^3),"[2]; 20 mg/kg iv x7 qd, 21 d",0.167 ± 0.03 cm^3
same,Tumor volume (cm^3),"[2]; 20 mg/kg iv x7 qd, 24 d (end)",0.488 cm^3 and 0.488 ± 0.07 cm^3
same,TV inhibition rate % T/C,[2]; 20 mg/kg/d iv x7 qd,27.82%
same,Tumor weight,[2]; 20 mg/kg/d iv x7 qd,0.755 ± 0.09 g
same,Body weight of mice,"[2]; 20 mg/kg/d iv x7 qd, 0 day (beginning)",17.6 g and 17.6 ± 0.8 g
same,Body weight of mice,"[2]; 20 mg/kg/d iv x7 qd, 7 day",19.7 ± 1 g
same,Body weight of mice,"[2]; 20 mg/kg/d iv x7 qd, 14 d",20.8 ± 1 g
same,Body weight of mice,"[2]; 20 mg/kg/d iv x7 qd, 21 d",22.7 ± 1.2 g
same,Body weight of mice,"[2]; 20 mg/kg/d iv x7 qd, 24 d (end)",23.0 g and 23 ± 1.2 g
same,tumor inhibition rate %,[2]; 20 mg/kg/d iv x7 qd,56.10%
same,Mice with palpable tumor / total mice,[2]; [7],3/6††
same,Tumor volume (cm^3),[2]; [7],0.01 cm^3
same,Tumor volume (cm^3),"[2]; 50 mg/kg iv x7 qd, 14 d",0.023 ± 0.02 cm^3
same,Tumor volume (cm^3),"[2]; 50 mg/kg iv x7 qd, 21 d",0.112 ± 0.03 cm^3
same,Tumor volume (cm^3),"[2]; 50 mg/kg iv x7 qd, 24 d (end)",0.310 cm^3 and 0.31 ± 0.05 cm^3
same,TV inhibition rate % T/C,[2]; 50 mg/kg/d iv x7 qd,17.67%
same,Tumor weight,[2]; 50 mg/kg/d iv x7 qd,0.617 ± 0.09 g
same,Body weight of mice,"[2]; 50 mg/kg/d iv x7 qd, 0 day (beginning)",18.1 g and 18.1 ± 1.1 g
same,Body weight of mice,"[2]; 50 mg/kg/d iv x7 qd, 7 day",18.8 ± 0.8 g
same,Body weight of mice,"[2]; 50 mg/kg/d iv x7 qd, 14 d",20.5 ± 1 g
same,Body weight of mice,"[2]; 50 mg/kg/d iv x7 qd, 21 d",22.2 ± 1.2 g
same,Body weight of mice,"[2]; 50 mg/kg/d iv x7 qd, 24 d (end)",23.0 g and 23 ± 1.2 g
same,tumor inhibition rate %,[2]; 50 mg/kg/d iv x7 qd,64.13%
same,Microtubule network appearance,[3]; 4 hours exposure,the microtubule network is markedly altered at all concentrations tested
same,Microtubule network appearance,"[3]; 24 hours, 1 uM and 3 uM",appear relatively normal
same,Microtubule network appearance,"[3]; 24 hours, 9 uM",the microtubules appear short and the network is abnormal
same,Body weight of mice,"[4]; 8 mg/kg iv x7 qd, 0 d (beginning)",17.7 g and 17.7 ± 0.5 g
same,Mice with palpable tumor / total mice,[4]; [8],3/6
same,Tumor volume (cm^3),[4]; [8],0.01 cm^3
same,Body weight of mice,"[4]; 8 mg/kg iv x7 qd, 7 d",19 ± 0.6 g
same,Body weight of mice,"[4]; 8 mg/kg iv x7 qd, 14 d",20.5 ± 1 g
same,Tumor volume (cm^3),"[4]; 8 mg/kg iv x7 qd, 14 d",0.048 ± 0.03 cm^3
same,Body weight of mice,"[4]; 8 mg/kg iv x7 qd, 21 d",21.2 ± 0.8 g
same,Tumor volume (cm^3),"[4]; 8 mg/kg iv x7 qd, 21 d",0.249 ± 0.05 cm^3
same,Tumor volume (cm^3),"[4]; 8 mg/kg iv x7 qd, 24 d",0.89 ± 0.39 cm^3
same,Body weight of mice,"[4]; 8 mg/kg iv x7 qd, 24 d (end)",22.2 g and 22.2 ± 0.8 g
same,Tumor weight,[4]; 8 mg/kg/d iv x7 qd,0.942 ± 0.14 g
same,tumor inhibition rate %,[4]; 8 mg/kg/d iv x7 qd,33.19%
same,Mice with palpable tumor / total mice,[4]; [9],2/6
same,Tumor volume (cm^3),[4]; [9],0.01 cm^3
same,Body weight of mice,"[4]; 20 mg/kg iv x7 qd, 7 d",18.3 ± 0.8 g
same,Body weight of mice,"[4]; 20 mg/kg iv x7 qd, 14 d",19.8 ± 0.8 g
same,Tumor volume (cm^3),"[4]; 20 mg/kg iv x7 qd, 14 d",0.03 ± 0.02 cm^3
same,Body weight of mice,"[4]; 20 mg/kg iv x7 qd, 21 d",20.5 ± 1 g
same,Tumor volume (cm^3),"[4]; 20 mg/kg iv x7 qd, 21 d",0.206 ± 0.03 cm^3
same,Tumor volume (cm^3),"[4]; 20 mg/kg iv x7 qd, 24 d",0.402 ± 0.1 cm^3
same,Body weight of mice,"[4]; 20 mg/kg iv x7 qd, 24 d (end)",22.0 g and 22.0 ± 1.4 g
same,Tumor weight,[4]; 20 mg/kg/d iv x7 qd,0.752 ± 0.12 g
same,tumor inhibition rate %,[4]; 20 mg/kg/d iv x7 qd,46.67%
same,Body weight of mice,"[4]; 50 mg/kg iv x7 qd, 0 d (beginning)",17.2 g and 17.2 ± 0.8 g
same,Mice with palpable tumor / total mice,[4]; [10],1/6
same,Tumor volume (cm^3),[4]; [10],0.01 cm^3
same,Body weight of mice,"[4]; 50 mg/kg iv x7 qd, 7 d",16.7 ± 0.8 g
same,Body weight of mice,"[4]; 50 mg/kg iv x7 qd, 14 d",17.8 ± 1.5 g
same,Mice with palpable tumor / total mice,"[4]; 50 mg/kg iv x7 qd, 14 d",6/6
same,Tumor volume (cm^3),"[4]; 50 mg/kg iv x7 qd, 14 d",0.01 cm^3
same,Body weight of mice,"[4]; 50 mg/kg iv x7 qd, 21 d",19.3 ± 1 g
same,Tumor volume (cm^3),"[4]; 50 mg/kg iv x7 qd, 21 d",0.148 ± 0.02 cm^3
same,Tumor volume (cm^3),"[4]; 50 mg/kg iv x7 qd, 24 d",0.316 ± 0.06 cm^3
same,Body weight of mice,"[4]; 50 mg/kg iv x7 qd, 24 d (end)",21.3 g and 21.3 ± 1.2 g
same,Tumor weight,[4]; 50 mg/kg/d iv x7 qd,0.657 ± 0.13 g
same,tumor inhibition rate %,[4]; 50 mg/kg/d iv x7 qd,53.40%
"CC(=O)O[C@H]1C(=O)[C@@]2(C)[C@H]([C@H](OC(=O)c3ccccc3)[C@]3(O)C[C@H](OC(=O)[C@H](O)[C@@H](NC(=O)c4ccccc4)c4ccccc4)C(C)=C1C3(C)C)[C@]1(OC(C)=O)CO[C@@H]1C[C@@H]2O [Taxol, paclitaxel, reference compound]",Annexin V staining (apoptosis),[1]; 50 nM,strong staining of Annexin V
same,Mice with palpable tumor / total mice,[2]; [11],4/6††
same,Tumor volume (cm^3),[2]; [11],0.01 cm^3
same,Tumor volume (cm^3),"[2]; 10 mg/kg iv x7 qd, 14 d",0.065 ± 0.02 cm^3
same,Tumor volume (cm^3),"[2]; 10 mg/kg iv x7 qd, 21 d",0.249 ± 0.07 cm^3
same,Tumor volume (cm^3),"[2]; 10 mg/kg iv x7 qd, 24 d (end)",0.685 cm^3 and 0.685 ± 0.14 cm^3
same,TV inhibition rate % T/C,[2]; 10 mg/kg/d iv x7 qd,39.05%
same,Tumor weight,[2]; 10 mg/kg/d iv x7 qd,0.88 ± 0.17 g
same,Body weight of mice,"[2]; 10 mg/kg/d iv x7 qd, 0 day (beginning)",18.1 g and 18.1 ± 1.1 g
same,Body weight of mice,"[2]; 10 mg/kg/d iv x7 qd, 7 day",19.7 ± 1 g
same,tumor inhibition rate %,[2]; 10 mg/kg/d iv x7 qd,48.84%
same,Microtubule network appearance,[3]; 4 hours exposure,Microtubules appear bundled in some locations
same,Microtubule network appearance,"[3]; 24 hours exposure, increasing dosage",increased bundling and the short microtubules persist
same,Tumor volume (cm^3),"[4]; 10 mg/kg iv x7 qd, 7 D after transplantation",0.01 cm^3
same,Tumor volume (cm^3),"[4]; 10 mg/kg iv x7 qd, 14 d",0.033 ± 0.02 cm^3
same,Tumor volume (cm^3),"[4]; 10 mg/kg iv x7 qd, 21 d",0.196 ± 0.03 cm^3
same,Tumor volume (cm^3),"[4]; 10 mg/kg iv x7 qd, 24 d",0.349 ± 0.08 cm^3
same,Tumor weight,[4]; 10 mg/kg/d iv x7 qd,0.77 ± 0.12 g
same,tumor inhibition rate %,[4]; 10 mg/kg/d iv x7 qd,45.39%
